Data from US20260256794A1, “Oral Dynamine Formulations and Methods Therefor” (Ortho-Nutra, LLC, priority 2023, published 2026).

How the values were obtained:
Type in all cases: in vivo, human
subjects [1] = assay: VAS-Ability to focus; design: VAS-Ability to focus rating, Mean / VAS-Ability to focus changes from baseline, Mean Difference ± SE / VAS-Ability to focus area under the curve, Mean Difference ± SE / VAS-Ability to focus area under the curve, Mean: scale not given here
Method: (§1) The inventors have discovered various compositions and methods of improving various indices of neurological and neuroenergetic functions by administering 100 mg (once daily) dosages of DYNAMINE™ (dosage between 1.0 and 1.4 mg/kg) as described in the following:
(§2) All neuroenergetic tests as listed below were performed and data were collected after 0 and 4 days of assigned supplements (with acute effects also measured at day 4 over 180 minutes):
All VAS Measurement (Energy, Sustained Energy, Mental Stamina, Ability to Focus, Ability to Concentrate, Motivation to Accomplish Difficult Tasks, Drive, Vigor, Level of Positive Outlook, Mood, Feelings of Well-Being, Tolerate Stress); Day 0: Two tests were completed. The average of both scores was computed and this value was used in all statistical analysis. Day 4 (0 minutes after ingesting dose #4): Two tests were completed. The average of both scores was computed and this value was used in all statistical analysis. Day 4 (60, 120, and 180 minutes after ingesting dose #4): One test was completed at each time point.
Neuroenergic parameters are inherently subjective, nevertheless significant in human behavior and well-being. To allow for a standardization among different subjects, the following experiments were performed using a visual analog scale using anchor statements (lowest possible/highest possible) in which subjects were asked to rate their subjective experience with respect to the specific neuroenergic parameters tested.
VAS-Ability to focus: In this subjective test, subjects were asked to rate their personal level of energy on a VAS scale using the prompt of “My ability to focus right now is . . . ” (with rating lowest possible to highest possible)”. Results were collected as noted above and Table 13 provides exemplary results for Day 0 versus Day 4 ratings, whereas Table 14 provides exemplary acute results measured at Day 4 over a duration of 180 minutes.

subjects [2] = assay: Stroop-Total Score
Method: as §1, §2
Stroop Color Matching Test (Total Score, Accuracy %, Average Score): Day 0: Two blocks of three tests were completed. Each block of three tests was separated by 10 minutes. The median of each block was taken and then those two scores were averaged. This value was used in all statistical analysis. Day 4: Three tests were completed at four time points: after 0, 60, 120, and 180 minutes of taking dose #4. The median of the three tests at each time point was used in all statistical analysis.
The Stroop Color and Word Test (SCWT, or Stroop test) is a neuropsychological test extensively used to assess the ability to inhibit cognitive interference that occurs when the processing of a specific stimulus feature impedes the simultaneous processing of a second stimulus attribute, well-known as the Stroop effect (see e.g., Front Psychol. 2017; 8:557). Here, subjects were required to read three different tables as fast as possible. Two of them represent the “congruous condition” in which participants are required to read names of colors (‘color-words’) printed in black ink (W) and name different color patches (C). However, in the third table, the color-word (CW) condition, color-words are printed in an inconsistent color ink (e.g., the word “red” is printed in green ink). In this incongruent condition, participants are required to name the color of the ink instead of reading the word. In other words, the participants are required to perform a less automated task (i.e., naming ink color) while inhibiting the interference arising from a more automated task (i.e., reading the word). This difficulty in inhibiting the more automated process is called the Stroop effect. The Stroop test is predominantly used to measure the ability to inhibit cognitive interference. However, some sources also report its application to measure other cognitive functions such as attention, processing speed, cognitive flexibility, and working memory.
Stroop-Total Score: The results for this test were based on a total score comparing performance between Day 0 and Day 4, with Day 4 including tests over a duration of 180 minutes. Results were collected as noted above and Table 41 provides exemplary results for Day 0 versus Day 4 ratings, whereas Table 42 provides exemplary acute results measured at Day 4 over a duration of 180 minutes.

subjects [3] = assay: Hemodynamics: systolic blood pressure; details: for Systolic blood pressure changes from baseline, Mean Difference ± SE / Systolic blood pressure changes from baseline, effect size d: between groups (placebo)
Method: as §1
(§3) Hemodynamics Systolic Blood Pressure, Diastolic Blood Pressure, Heart Rate were taken Pre and Post Stroop Test on Day 0; Pre and Post Stroop Test after 4 Days of Supplementation 0, 60, 120, and 180 minutes after ingestion of 4th dose.
(§4) For hemodynamic parameters, systolic blood pressure, diastolic blood pressure, and heart rate were taken pre- and post-Stroop Test on Day 0, and pre- and post-Stroop Test after 4 Days of Supplementation 0, 60, 120, and 180 minutes after ingestion of 4th dose.

subjects [4] = assay: Hemodynamics: diastolic blood pressure; details: for Diastolic blood pressure changes from baseline, Mean Difference ± SE / Diastolic blood pressure changes from baseline, effect size d: between groups (placebo)
Method: as §1, §3, §4

[5] = 100 mg once daily, Day 4, 0-180 min, vs Group A (placebo)
[6] = 100 mg once daily, Day 4, 0 min after dose #4
[7] = 100 mg once daily, Day 4, 60 min-0 min, vs Group A (placebo)
[8] = 100 mg once daily, Day 4, 60 min after dose #4
[9] = 100 mg once daily, Day 4, 120 min-0 min, vs Group A (placebo)
[10] = 100 mg once daily, Day 4, 120 min after dose #4
[11] = 100 mg once daily, Day 4, 180 min-0 min, vs Group A (placebo)
[12] = 100 mg once daily, Day 4, 180 min after dose #4
[13] = 100 mg once daily, Day 4, 0 min after 4th dose
[14] = 100 mg once daily, Day 4, 60 min-0 min
[15] = 100 mg once daily, Day 4, 60 min after 4th dose
[16] = 100 mg once daily, Day 4, 120 min-0 min
[17] = 100 mg once daily, Day 4, 120 min after 4th dose
[18] = 100 mg once daily, Day 4, 180 min-0 min
[19] = 100 mg once daily, Day 4, 180 min after 4th dose

SMILES: COc1nc2c(c(=O)n1C)n(C)c(=O)n2C [methylliberine, 2-methoxy-1,7,9-trimethylpurine-6,8-dione]
- VAS-Ability to focus area under the curve, Mean (subjects [1]; 100 mg once daily, Day 4, 0-180 min): 1155
- VAS-Ability to focus area under the curve, Mean Difference ± SE (subjects [1]; [5]): 55.3 ± 40.9
- VAS-Ability to focus area under the curve, effect size d (subjects [1]; [5]): 0.17
- VAS-Ability to focus rating, Mean (subjects [1]; [6]): 6.0
- VAS-Ability to focus changes from baseline, Mean Difference ± SE (subjects [1]; [7]): 0.35 ± 0.30
- VAS-Ability to focus changes from baseline, effect size d (subjects [1]; [7]): 0.34
- VAS-Ability to focus rating, Mean (subjects [1]; [8]): 6.4
- VAS-Ability to focus changes from baseline, Mean Difference ± SE (subjects [1]; [9]): 0.20 ± 0.26
- VAS-Ability to focus changes from baseline, effect size d (subjects [1]; [9]): 0.20
- VAS-Ability to focus rating, Mean (subjects [1]; [10]): 6.5
- VAS-Ability to focus changes from baseline, Mean Difference ± SE (subjects [1]; [11]): 0.44 ± 0.24
- VAS-Ability to focus changes from baseline, effect size d (subjects [1]; [11]): 0.38
- VAS-Ability to focus rating, Mean (subjects [1]; [12]): 6.7
- VAS-Ability to focus rating, Mean (subjects [1]; Day 0 (before supplementation)): 5.9
- Stroop total score, Mean (subjects [2]; [6]): 127.4
- Stroop total score, Mean (subjects [2]; [8]): 131.5
- Stroop total score, Mean (subjects [2]; [10]): 132.1
- Stroop total score, Mean (subjects [2]; [12]): 134.8
- Stroop total score, Mean (subjects [2]; Day 0 (before supplementation)): 125.0
- Systolic blood pressure, Mean (subjects [3]; [13]): 121.4 mm Hg
- Systolic blood pressure changes from baseline, Mean Difference ± SE (subjects [3]; [14]): 1.16 ± 2.57 mm Hg
- Systolic blood pressure changes from baseline, effect size d (subjects [3]; [14]): −0.12
- Systolic blood pressure, Mean (subjects [3]; [15]): 117.9 mm Hg
- Systolic blood pressure changes from baseline, Mean Difference ± SE (subjects [3]; [16]): −0.60 ± 2.22 mm Hg
- Systolic blood pressure changes from baseline, effect size d (subjects [3]; [16]): 0.06
- Systolic blood pressure, Mean (subjects [3]; [17]): 120.6 mm Hg
- Systolic blood pressure changes from baseline, Mean Difference ± SE (subjects [3]; [18]): 2.40 ± 2.25 mm Hg
- Systolic blood pressure changes from baseline, effect size d (subjects [3]; [18]): −0.27
- Systolic blood pressure, Mean (subjects [3]; [19]): 120.0 mm Hg
- Systolic blood pressure, Mean (subjects [3]; Day 0 (before supplementation)): 118.6 mm Hg
- Diastolic blood pressure, Mean (subjects [4]; [13]): 77.3 mm Hg
- Diastolic blood pressure changes from baseline, Mean Difference ± SE (subjects [4]; [14]): 1.28 ± 1.65 mm Hg
- Diastolic blood pressure changes from baseline, effect size d (subjects [4]; [14]): −0.21
- Diastolic blood pressure, Mean (subjects [4]; [15]): 76.9 mm Hg
- Diastolic blood pressure changes from baseline, Mean Difference ± SE (subjects [4]; [16]): 5.84 ± 1.55 mm Hg
- Diastolic blood pressure changes from baseline, effect size d (subjects [4]; [16]): −0.84
- Diastolic blood pressure, Mean (subjects [4]; [17]): 75.6 mm Hg
- Diastolic blood pressure changes from baseline, Mean Difference ± SE (subjects [4]; [18]): 2.64 ± 1.66 mm Hg
- Diastolic blood pressure changes from baseline, effect size d (subjects [4]; [18]): −0.42
- Diastolic blood pressure, Mean (subjects [4]; [19]): 77.2 mm Hg
- Diastolic blood pressure, Mean (subjects [4]; Day 0 (before supplementation)): 76.6 mm Hg
